Reference: patent US20040254162A1, “Oxazolidinone derivatives as antimicrobials” (priority 2001, published 2004)
Converted amounts (≈) assume the structure as drawn. “And” between values parts separate entries of the source, which are not always exact repeats. Equal values may be shown once. Read-outs that look alike come from different tables or passages of the source.

Tests used:
[1] = system: Prevotella intermedia; assay: Agar dilution MIC, anaerobes; format: cell-based; conditions: single isolates, anaerobic agar dilution; for MIC: Prevotella intermedia, read-out: MIC Prevotella intermedia
[2] = system: Porphyromonas asaccharolytica; assay: Agar dilution MIC, anaerobes; format: cell-based; conditions: Porphyromonas asaccharolytica; single isolate, anaerobic agar dilution; read-out: MIC Porphyromonas asaccharolytica
[3] = system: Eubacterium leutum; assay: Agar dilution MIC, anaerobes; format: cell-based; conditions: single isolates, anaerobic agar dilution; for MIC: Eubacterium, read-out: MIC Eubacterium leutum
[4] = system: P. acnes; assay: Agar dilution MIC, anaerobes; format: cell-based; conditions: single isolates, anaerobic agar dilution; for MIC: Cutibacterium acnes, read-out: MIC P. acnes
[5] = system: Peptostreptococcus prevotii; assay: Agar dilution MIC, anaerobes; format: cell-based; conditions: single isolates, anaerobic agar dilution; for MIC: Anaerococcus prevotii, read-out: MIC Peptostreptococcus prevotii
[6] = system: Prevotella bivia; assay: Agar dilution MIC, anaerobes; format: cell-based; conditions: Prevotella bivia; single isolate, anaerobic agar dilution; read-out: MIC Prevotella bivia
[7] = system: Fusobacterium necrogenes; assay: Agar dilution MIC, anaerobes; format: cell-based; conditions: single isolate, anaerobic agar dilution; for MIC: Fusobacterium necrogenes, read-out: MIC Fusobacterium necrogenes
[8] = system: Peptostreptococcus micros; assay: Agar dilution MIC, anaerobes; format: cell-based; conditions: single isolates, anaerobic agar dilution; for MIC: Parvimonas micra, read-out: MIC Peptostreptococcus micros
[9] = system: anaerobic bacteria; assay: Agar dilution method for anaerobic bacteria, summary; format: cell-based
[10] = system: Peptostreptococcus tetradius; assay: Agar dilution MIC, anaerobes; format: cell-based; conditions: Anaerococcus tetradius, single isolates, anaerobic agar dilution; read-out: MIC Peptostreptococcus tetradius
[11] = system: Fusobacterium varium; assay: Agar dilution MIC, anaerobes; format: cell-based; conditions: single isolates, anaerobic agar dilution; for MIC: Fusobacterium varium, read-out: MIC Fusobacterium varium
[12] = system: Clostridium camis; assay: Agar dilution MIC, anaerobes; format: cell-based; conditions: Clostridium; single isolates, anaerobic agar dilution; read-out: MIC Clostridium camis
[13] = system: Prevotella melaninogenica; assay: Agar dilution MIC, anaerobes; format: cell-based; conditions: single isolates, anaerobic agar dilution; for MIC: Prevotella melaninogenica, read-out: MIC Prevotella melaninogenica
[14] = system: Fusobacterium nucleatum; assay: Agar dilution MIC, anaerobes; format: cell-based; conditions: Fusobacterium nucleatum, single isolates, anaerobic agar dilution; read-out: MIC Fusobacterium nucleatum
[15] = system: Clostridium difficile; assay: Agar dilution MIC, anaerobes; format: cell-based; conditions: single isolates, anaerobic agar dilution; for MIC: Clostridioides difficile, read-out: MIC Clostridium difficile
[16] = system: Porphyromonas gingivalis; assay: Agar dilution MIC, anaerobes; format: cell-based; conditions: Porphyromonas gingivalis; single isolate, anaerobic agar dilution; read-out: MIC Porphyromonas gingivalis
[17] = system: Mycobacterium avium intracellulare; assay: Agar dilution method, mycobacteria; format: cell-based; conditions: for MIC50 / MIC90: Mycobacterium avium, 504 h, Middlebrook 7H10 agar, 21 days; for MIC50: read-out: MIC50; for MIC90: read-out: MIC90
[18] = system: Mycobacterium tuberculosis; assay: microbe, parasite or virus in culture; conditions: 504 h
[19] = system: Mycobacterium tuberculosis
[20] = system: Prevotella (Bacteroides) disiens; assay: Agar dilution MIC, anaerobes; format: cell-based; conditions: single isolates, anaerobic agar dilution
[21] = system: Clostridium perfringens; assay: microbe, parasite or virus in culture; format: cell-based; conditions: Clostridium perfringens, read-out: MIC Clostridium perfringens, single isolates, anaerobic agar dilution
[22] = system: Fusobacterium montiferum; assay: Agar dilution MIC, anaerobes; format: cell-based; conditions: Fusobacterium, single isolates, anaerobic agar dilution; read-out: MIC Fusobacterium montiferum
[23] = system: Bacteroides fragilis; assay: Agar dilution MIC, anaerobes; format: cell-based; conditions: single isolates, anaerobic agar dilution
[24] = system: Peptostreptococcus magnum; assay: Agar dilution MIC, anaerobes; format: cell-based; conditions: single isolates, anaerobic agar dilution
[25] = system: Peptostreptococcus asaccharolyticus; assay: Agar dilution MIC, anaerobes; format: cell-based; conditions: single isolates, anaerobic agar dilution
[26] = anaerobes, Wilkins Chalgren agar, 48 hour

Compound | MIC [1] [µg/mL] | MIC [2] [µg/mL] | MIC [3] [µg/mL] | MIC Eubacterium leutum [3] [µg/mL] | MIC [4] [µg/mL] | MIC [5] [µg/mL] | MIC [6] [µg/mL] | MIC [7] [µg/mL] | MIC [8] [µg/mL] | MIC50 ([9]; 48 h) [µg/mL] | MIC90 ([9]; 48 h) [µg/mL] | Geometric Mean ([9]; anaerobes) [µg/mL] | MIC Range ([9]; anaerobes) [µg/mL] | MIC [10] [µg/mL] | MIC [11] [µg/mL] | MIC Fusobacterium varium [11] [µg/mL] | MIC50 [17] [µg/mL] | MIC90 [17] [µg/mL] | MIC50 [18] [µg/mL] | MIC90 [18] [µg/mL] | other results
C[C@@H](O)[C@H]1C(=O)N2C(C(=O)O)=C(SCCN=CN)C[C@H]12 [Imipenem] | ≤ 0.016 | 0.03 (≈ 0.1 µM) | 0.25 (≈ 0.835 µM) | 0.5 (≈ 1.67 µM) | ≤ 0.016 | ≤ 0.016 | 0.03 (≈ 0.1 µM) | 0.25 (≈ 0.835 µM) | 0.03 (≈ 0.1 µM) | 0.064 (≈ 0.214 µM) | 1 (≈ 3.34 µM) | 0.084 | 0.008 to 4 | 0.03 (≈ 0.1 µM) | 0.5 (≈ 1.67 µM) | 1 (≈ 3.34 µM) | – | – | – | – | MIC [12]: 0.06 µg/mL (≈ 0.2 µM); MIC [13]: ≤ 0.016 µg/mL; MIC [14]: ≤ 0.016 µg/mL; MIC [15]: 4 µg/mL (≈ 13.4 µM); MIC [16]: ≤ 0.016 µg/mL
CO[C@H]1/C=C/O[C@@]2(C)Oc3c(C)c(O)c4c(O)c(c(/C=N/N5CCN(C)CC5)c(O)c4c3C2=O)NC(=O)/C(C)=C\C=C\[C@H](C)[C@H](O)[C@@H](C)[C@@H](O)[C@@H](C)[C@H](OC(C)=O)[C@@H]1C [Rifampicin] | – | – | – | – | – | – | – | – | – | – | – | – | – | – | – | – | 1 (≈ 1.22 µM) | 32 (≈ 38.9 µM) | 64 (≈ 77.8 µM) | 64 (≈ 77.8 µM) | G.M. [17]: 1.999 µg/mL; G.M. [19]: 6.35 µg/mL
Cc1ncc([N+](=O)[O-])n1CCO [Metronidazole] | 0.5 (≈ 2.92 µM) | ≤ 0.125 | 0.25 (≈ 1.46 µM) | 0.5 (≈ 2.92 µM) | > 16 | 2 (≈ 11.7 µM) | 1 (≈ 5.84 µM) | 0.25 (≈ 1.46 µM) | 0.25 (≈ 1.46 µM) | 0.5 (≈ 2.92 µM) | 2 (≈ 11.7 µM) | 0.48 | 0.062 to 32 | 1 (≈ 5.84 µM) | ≤ 0.125 | – | – | – | – | – | MIC Prevotella (Bacteroides) disiens [20]: 1 µg/mL (≈ 5.84 µM); MIC ([20]; read-out: MIC Prevotella (Bacteroides) disiens): 0.5 µg/mL (≈ 2.92 µM); MIC Prevotella intermedia [1]: 0.25 µg/mL (≈ 1.46 µM); MIC [21]: 1 µg/mL (≈ 5.84 µM); MIC Peptostreptococcus prevotii [5]: 1 µg/mL (≈ 5.84 µM); MIC Peptostreptococcus micros [8]: 0.5 µg/mL (≈ 2.92 µM); MIC [12]: ≤ 0.125 µg/mL; MIC [22]: ≤ 0.125 µg/mL; MIC [13]: 0.25 µg/mL (≈ 1.46 µM); MIC Prevotella melaninogenica [13]: 0.5 µg/mL (≈ 2.92 µM); MIC [15]: 0.25 µg/mL (≈ 1.46 µM); MIC [16]: ≤ 0.125 µg/mL; MIC ([23]; Bacteroides fragilis, read-out: MIC Bacteroides fragilis): 0.5 µg/mL (≈ 2.92 µM); MIC Bacteroides fragilis [23]: 1 µg/mL (≈ 5.84 µM)
NNC(=O)c1ccncc1 [Isoniazid] | – | – | – | – | – | – | – | – | – | – | – | – | – | – | – | – | 32 (≈ 233 µM) | 64 (≈ 467 µM) | 8 (≈ 58.3 µM) | 64 (≈ 467 µM) | G.M. ([17]; geometric mean MIC): 18.149 µg/mL; G.M. ([19]; geometric mean MIC): 3.17 µg/mL
CC1(C)S[C@@H]2[C@H](NC(=O)[C@H](N)c3ccc(O)cc3)C(=O)N2[C@H]1C(=O)O [Amox] | – | – | – | 1 (≈ 2.74 µM) | – | – | – | – | – | – | – | 1.366 | 0.062 to 256 | – | – | 1 (≈ 2.74 µM) | – | – | – | – | MIC Prevotella (Bacteroides) disiens [20]: >128 µg/mL; MIC Prevotella intermedia [1]: 4 µg/mL (≈ 10.9 µM); MIC Peptostreptococcus magnum [24]: 0.25 µg/mL and 0.5 µg/mL; MIC P. acnes [4]: 0.25 µg/mL (≈ 0.684 µM); MIC Peptostreptococcus prevotii [5]: 0.25 µg/mL (≈ 0.684 µM); MIC Fusobacterium necrogenes [7]: 0.5 µg/mL (≈ 1.37 µM); MIC50 [9, 26]: 1 µg/mL (≈ 2.74 µM); MIC90 [9, 26]: 256 µg/mL (≈ 701 µM); MIC Peptostreptococcus asaccharolyticus [25]: 0.25 µg/mL (≈ 0.684 µM); MIC Prevotella melaninogenica [13]: 64 µg/mL (≈ 175 µM); MIC Clostridium difficile [15]: 1 µg/mL and 2 µg/mL
C[C@@H]1CN(c2c(F)c(N)c3c(=O)c(C(=O)O)cn(C4CC4)c3c2F)C[C@H](C)N1 [Sparfloxacin] | – | – | – | – | – | – | – | – | – | – | – | – | – | – | – | – | 4 (≈ 10.2 µM) | 8 (≈ 20.4 µM) | 1 (≈ 2.55 µM) | 2 (≈ 5.1 µM) | G.M. ([17]; geometric mean MIC): 3.526 µg/mL; G.M. ([19]; geometric mean MIC): 0.53 µg/mL
